These results are taken from patent publication US4587340A, “Biopterin analogs” (Burroughs Wellcome Co., priority 1984, dated 1986).

SMILES strings stand for the structures.

Series [1] addresses T1, Phenylalanine hydroxylase (Rattus norvegicus, UniProt P04176).
T1 construct: Phenylalanine hydroxylase was prepared from rat liver using hydrophobic chromatography; from tissue; host or cells: rat liver
T1 sequence (P04176 1-453): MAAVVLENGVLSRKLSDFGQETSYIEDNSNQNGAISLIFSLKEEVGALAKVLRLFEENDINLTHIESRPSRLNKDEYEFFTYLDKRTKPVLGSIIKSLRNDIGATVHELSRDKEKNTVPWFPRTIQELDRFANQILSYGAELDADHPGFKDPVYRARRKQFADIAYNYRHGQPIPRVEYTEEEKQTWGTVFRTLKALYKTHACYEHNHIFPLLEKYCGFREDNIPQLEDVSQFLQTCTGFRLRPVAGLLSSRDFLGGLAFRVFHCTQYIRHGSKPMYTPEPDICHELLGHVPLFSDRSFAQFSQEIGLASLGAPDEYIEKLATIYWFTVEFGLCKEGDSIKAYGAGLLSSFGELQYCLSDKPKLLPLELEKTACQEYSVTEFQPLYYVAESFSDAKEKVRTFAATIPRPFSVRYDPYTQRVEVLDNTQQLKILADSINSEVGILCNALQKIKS
The series is described as follows: Phenylalanine hydroxylase cofactor assay. Format: biochemical. To be noted: for Phenylalanine hydroxylase Vmax: tetrahydrobiopterin = 100.

Another series has as its target T2, bovine liver DHFR (Bos taurus, UniProt P00376).
T2 construct: from tissue; host or cells: bovine liver
T2 sequence (P00376 1-187): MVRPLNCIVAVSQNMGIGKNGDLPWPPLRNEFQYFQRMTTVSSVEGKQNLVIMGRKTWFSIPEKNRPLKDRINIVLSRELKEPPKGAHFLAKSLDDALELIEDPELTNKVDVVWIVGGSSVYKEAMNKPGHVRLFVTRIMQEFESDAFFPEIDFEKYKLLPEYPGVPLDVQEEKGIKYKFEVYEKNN
Nature of the series: Dihydrofolate reductase assay. Format: biochemical. To be noted: for Dihydrofolate reductase V: 7,8-dihydro form of the pterin, 7,8-dihydrobiopterin = 100. How it is done:
These assays were carried out on the 7,8-dihydropterin analogs of the compounds of formula I which were tetrahydropterins. The 7,8-dihydropterins were obtained commercially (in the case of dihydrobiopterin) or synthesized from the corresponding compound of formula I. Synthesis of 7,8-dihydropterins involved the combination of 0.27 μmole of a compound of formula I, 20 μg of horseradish peroxidase, 0.6 μmole of hydrogen peroxide in 0.1 ml of 0.5M potassium phosphate buffer, pH 7.5. After 3 min at room temperature, 10 μg of bovine liver catalase was added. The production of the 7,8-dihydropterin was verified by U.V. spectroscopy.
The assay was carried out with bovine liver DHFR using a modification of the method of Bailey and Ayling (J. Biol. Chem., 253, 1598 (1978)) where the desired dihydropterin replaced dihydrobiopterin, and the HPLC system used consisted of an anaerobic 0.1M acetic acid (with or without 10% acetonitrite) solvent on a 25 cm×4.6 mm Dupont TMS-Zorbax column. In our hands, dihydrobiopterin is reduced at a rate 2.5% that of the natural substrate dihydrofolate.

The next series addresses T3, Tryptophan hydroxylase (Rattus norvegicus, UniProt Q8CGU9).
T3 construct: The preparation of tryptophan hydroxylase was a crude 30,000xg supernatant; from tissue
T3 sequence (Q8CGU9 1-485): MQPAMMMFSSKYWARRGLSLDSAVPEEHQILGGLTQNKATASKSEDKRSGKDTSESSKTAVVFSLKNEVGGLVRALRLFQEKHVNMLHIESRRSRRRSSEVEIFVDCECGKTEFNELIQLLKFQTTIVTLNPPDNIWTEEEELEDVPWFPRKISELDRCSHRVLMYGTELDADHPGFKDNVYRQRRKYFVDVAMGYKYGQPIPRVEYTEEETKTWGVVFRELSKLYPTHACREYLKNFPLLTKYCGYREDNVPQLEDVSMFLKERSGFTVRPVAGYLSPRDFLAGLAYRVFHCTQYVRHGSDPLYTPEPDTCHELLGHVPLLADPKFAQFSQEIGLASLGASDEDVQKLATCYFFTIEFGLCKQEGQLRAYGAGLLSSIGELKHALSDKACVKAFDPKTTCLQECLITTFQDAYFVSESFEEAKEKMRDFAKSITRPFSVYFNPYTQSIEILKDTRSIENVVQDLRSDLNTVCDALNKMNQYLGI
The series is described as follows: Tryptophan hydroxylase cofactor assay. Type of series: biochemical. To be noted: for Tryptophan hydroxylase Vmax: tetrahydrobiopterin = 100; for Activity for tryptophan hydroxylase: in words. On the procedure: Tryptophan hydroxylase was assayed according to a modification of the method of Renson J., et al (Biochem. Biophys. Acta 25: 504 (1966)).

Another series concerns the target Tyrosine hydroxylase (Homo sapiens, UniProt P07101). The series is described as follows: Tyrosine hydroxylase cofactor assay. Type of series: biochemical. On the procedure:
Tyrosine hydroxylase was partially purified through a 25-45% ammonium sulfate fraction. […] The enzyme was assayed by a modification of the method of Nagatsu, T., Levitt, M., and Udenfriend, S. (Anal. Biochem. 9, 122, (1964)) where the Dowex chromatography step was replaced by a charcoal extraction.

For series [2] the following is noted: background statement; cited from earlier work.
Series [3] concerns striatal dopamine synthesis, noradrenaline synthesis in peripheral nerves. The settings on record: administration of BH4; cited from earlier work.
A further series relates to atypical PKU. The settings on record: large quantities; cited from earlier work.
Series [4] has as its target T4, Dihydropteridine reductase (Homo sapiens, UniProt P09417).
T4 sequence (P09417 1-244): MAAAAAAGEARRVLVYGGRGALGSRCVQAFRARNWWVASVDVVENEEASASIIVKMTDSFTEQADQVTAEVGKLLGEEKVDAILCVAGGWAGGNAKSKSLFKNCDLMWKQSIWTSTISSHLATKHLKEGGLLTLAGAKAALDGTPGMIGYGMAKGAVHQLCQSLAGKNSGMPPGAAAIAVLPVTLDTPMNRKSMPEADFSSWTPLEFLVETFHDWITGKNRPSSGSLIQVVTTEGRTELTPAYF
Nature of the series: Dihydropteridine reductase assay. Format: biochemical. To be noted: quinonoid dihydro form; biopterin form = 100. On the procedure: Dihydropteridine reductase was assayed by the method of Craine, et al., (J. Biol. Chem., 247, 6082 (1972)).

In the next series the test system is depression. To be noted: several patients; cited from earlier work.
The conditions of series [5]: background statement; cited from earlier work. This is another data set of the same source.
Another series has as its system Parkinson's disease. To be noted: BH4 administration; cited from earlier work.

Chain of Tyrosine hydroxylase (P07101 whole entry): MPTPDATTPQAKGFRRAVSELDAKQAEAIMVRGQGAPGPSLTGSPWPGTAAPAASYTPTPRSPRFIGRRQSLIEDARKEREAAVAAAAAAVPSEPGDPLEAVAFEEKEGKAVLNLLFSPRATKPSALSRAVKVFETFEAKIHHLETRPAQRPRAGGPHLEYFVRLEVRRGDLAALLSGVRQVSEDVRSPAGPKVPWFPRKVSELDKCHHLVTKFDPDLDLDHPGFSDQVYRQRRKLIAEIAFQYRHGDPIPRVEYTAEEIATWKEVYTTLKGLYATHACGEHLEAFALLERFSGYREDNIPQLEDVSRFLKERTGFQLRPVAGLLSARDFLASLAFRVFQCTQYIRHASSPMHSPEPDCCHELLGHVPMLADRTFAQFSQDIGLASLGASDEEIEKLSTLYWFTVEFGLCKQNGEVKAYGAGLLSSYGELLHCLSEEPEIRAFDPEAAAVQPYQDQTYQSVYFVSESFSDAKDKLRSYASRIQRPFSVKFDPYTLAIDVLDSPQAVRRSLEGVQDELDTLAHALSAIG

In the case of `COCC1CNc2nc(N)[nH]c(=O)c2N1` (racemic) [6-Methoxymethyl-tetrahydropterin, (+-)-2-Amino-5,6,7,8-tetrahydro-6-methoxymethyl-4(3H)-pteridinone], the “Phenylalanine hydroxylase Vmax” value in series [1] is 79%. In addition, the “Dihydrofolate reductase V” value at bovine liver DHFR stood at 800%. On Tryptophan hydroxylase, the “Tryptophan hydroxylase Vmax” value is recorded as 54%.
In the case of `CCOCC1CNc2nc(N)[nH]c(=O)c2N1` (racemic) [R=C2 H5, (+-)-2-Amino-5,6,7,8-tetrahydro-6-ethoxymethyl-4(3H)-pteridinone], the “Activity for phenylalanine hydroxylase” value in series [1] (in words) is on record as “active”. The “Activity for tyrosine hydroxylase” value on Tyrosine hydroxylase (in words) is recorded as “active”. The “Activity for tryptophan hydroxylase” value on Tryptophan hydroxylase is listed as “active”.
On to `CCCCOCC1CNc2nc(N)[nH]c(=O)c2N1` (racemic) [R=C4 H9, (+-)-2-Amino-5,6,7,8-tetrahydro-6-n-butoxymethyl-4(3H)-pteridinone], for which the “Activity for phenylalanine hydroxylase” value in [1] (in words) was “successively less active”. At Tyrosine hydroxylase (versus tryptophan and phenylalanine hydroxylases), the “Specificity for tyrosine hydroxylase” value is on record as “greatest specificity”. Further, on Tryptophan hydroxylase, the “Activity for tryptophan hydroxylase” value is reported as “successively less active”.
With `CC(O)C(O)C1=Nc2c(nc(N)[nH]c2=O)NC1` (stereo not drawn) [7,8-Dihydrobiopterin], the “Rate of reduction by DHFR relative to dihydrofolate, the natural substrate” value at bovine liver DHFR (bovine liver DHFR) is 2.5%.
`CCCCCCCCOCC1CNc2nc(N)[nH]c(=O)c2N1` (stereo not drawn) [C8 H17]: the “Activity for phenylalanine hydroxylase” value in series [1] (in words) is “successively less active”. Moreover, the “Activity for tryptophan hydroxylase” value on Tryptophan hydroxylase is recorded as “successively less active”.
Turning to `CCCOCC1CNc2nc(N)[nH]c(=O)c2N1` (stereo not drawn) [R=C3 H7], the “Activity for phenylalanine hydroxylase” value in [1] (in words) is “successively less active”. Besides, the “Activity for tryptophan hydroxylase” value on Tryptophan hydroxylase is on record as “successively less active”.
On to `C[C@H](O)[C@H](O)[C@H]1CNc2nc(N)[nH]c(=O)c2N1` [Tetrahydrobiopterin], for which the Brain penetration entry in [2] is recorded as “penetrates brain poorly”. Besides, the “Specific activity of phenylalanine hydroxylase with the co-factor” value in series [1] (37°, rat liver enzyme) is reported as 1.0 μmol/mg protein per minute. In addition, the “Substrate inhibition of phenylalanine hydroxylase by large amounts of phenylalanine” value in series [1] (in words) is “large amounts of phenylalanine inhibit phenylalanine hydroxylase”. The “Phenylalanine hydroxylase Vmax” value in [1] worked out at 100%. For the same compound, in series [3], the “Noradrenaline synthesis in peripheral nerves” value is given as “nearly double” and the Striatal dopamine synthesis result is given as “nearly double”. In addition, at Tyrosine hydroxylase (25-45% ammonium sulfate fraction), the “Specific activity of tyrosine hydroxylase preparation with the cofactor” value is on record as 4.0 nmole/mg protein (min). For the same compound, at Tyrosine hydroxylase (tetrahydrobiopterin = 100), the “Tyrosine hydroxylase Vmax” value amounted to 100%. Also, in the series with atypical PKU, the “Treatment of atypical PKU” value is listed as “successfully treated”. Moreover, on bovine liver DHFR, the “Dihydrofolate reductase V” value came to 100%. The “Specific activity of tryptophan hydroxylase with the cofactor” value on Tryptophan hydroxylase (37°, crude 30,000xg supernatant) is “approximately 100 pmol product per milligram protein per minute”. The “Tryptophan hydroxylase Vmax” value on Tryptophan hydroxylase came to 100%. In series [4], the “Dihydropteridine reductase Vmax” value was found to be 100%. For the same compound, in the series with depression, the Symptoms of depression result is given as “improve the symptoms of depression”. For the same compound, in series [5], the Stability result is “unstable”. Besides, the “Symptoms of Parkinson's disease” value in the series with Parkinson's disease is reported as “improve the symptoms of Parkinson's disease”.
